“Also recorded” adds a separate entry of the source.
How the values were obtained:
[1] = cited from earlier work
[2] = Stability of fosaprepitant in a human serum albumin (HSA) solution, visual clarity; format: physicochemical; conditions: for appearance of solution initially: 25° C.; for appearance of solution over time: after 1, 2, 3, 4, 6, 8 and 24 hours at 25° C.
Description: To 3 different vials containing 25 mg of fosaprepitant dimeglumine each were added 1 ml of 10% HSA solution (w/v), 1 ml of 5% HSA solution (w/v), and 1 ml of 2% HSA solution (w/v), respectively, at 25° C.

[3] = pH value of the aqueous solution with or without HSA; format: physicochemical; conditions: about 25° C.
Description: 245.3 mg of fosaprepitant dimeglumine and 0.28 mg of palonosetron hydrochloride were dissolved in methanol, and then methanol was removed from the solution to give a white solid.

[4] = 25 mg in 1 ml of 2% HSA solution (w/v)
[5] = 25 mg in 1 ml of 5% HSA solution (w/v)
[6] = 25 mg in 1 ml of 10% HSA solution (w/v)

| Structure (SMILES) | solubility in acetonitrile ([1]; acetonitrile) | solubility in ethanol ([1]; ethanol) | solubility in isopropyl acetate ([1]; isopropyl acetate) | solubility in water [1] | appearance of solution initially [2, 4] | appearance of solution over time [2, 4] | appearance of solution initially [2, 5] | appearance of solution over time [2, 5] | appearance of solution initially [2, 6] | appearance of solution over time [2, 6] | pH value of the clear aqueous solution ([3]; 24.5 mg in 15 ml of 0.9% saline solution) | pH value of the clear aqueous solution ([3]; 24.5 mg in 15 ml of HSA solution (0.5 ml of 20% HSA + 14.5 ml of 0.9% saline)) |
| --- | --- | --- | --- | --- | --- | --- | --- | --- | --- | --- | --- | --- |
| C[C@@H](O[C@H]1OCCN(Cc2n[nH]c(=O)[nH]2)[C@H]1c1ccc(F)cc1)c1cc(C(F)(F)F)cc(C(F)(F)F)c1 [Aprepitant, aprepitant] | slightly soluble | sparingly soluble | sparingly soluble | practicallyinsoluble; also recorded: insoluble |  |  |  |  |  |  |  |  |
| C[C@@H](O[C@H]1OCCN(Cc2nc(O)n(P(=O)(O)O)n2)[C@H]1c1ccc(F)cc1)c1cc(C(F)(F)F)cc(C(F)(F)F)c1 [fosaprepitant] |  |  |  | soluble |  |  |  |  |  |  |  |  |
| C[C@@H](O[C@H]1OCCN(Cc2nn(P(=O)(O)O)c(=O)[nH]2)[C@H]1c1ccc(F)cc1)c1cc(C(F)(F)F)cc(C(F)(F)F)c1 [fosaprepitant dimeglumine] |  |  |  |  | clear aqueous solution | stayed clear | clear aqueous solution | stayed clear | clear aqueous solution | stayed clear | 7.70 | 7.15 |
